Blank lines part the entries; values can stand above or below the compound they belong to.
What was measured:
SfaA = test: AMP PPi assay of the putative meta-hydroxylase SfaA expressed in E. coli; assay type: biochemical, Streptomyces sp. A92-308110 (S. flaveolus)
Excerpt: Traditional phenylalanine/tyrosine/tryptophan hydroxylation systems all rely on an electrophilic substitution reaction to realize hydroxylation in the electron-rich regions of aromatic systems. On the contrary, the meta-hydroxylation of phenylalanine occurs at the relatively electron-poor meta position of phenylalanine. […] The putative meta-hydroxylase, SfaA, was expressed in E. coli and isolated using standard methods.

SfaR = test: in vitro activity of purified His-tagged SfaR (reduction / reductive carboxylation) on acyl substrates; assay type: biochemical, Streptomyces sp A92-309110 (S. flaveolus)
Excerpt: To validate the central role of SfaR for unusual building block supply in the proposed pathway, we first inactivated sfaR by in-frame deletion. […] Secondly, we heterologously expressed and purified the N-terminal 6× His-tagged SfaR to near homogeneity for in vitro studies. As expected, in the presence of NADPH and bicarbonate, crotonyl-S-CoA (FIG. 7, 4) was efficiently converted by SfaR to the major product ethylmalonyl-S-CoA (FIG. 7, 5) along with the shunt product butyryl-S-CoA (FIG. 7, 7). […] To exclude the possibility that the reaction directly occurs on the ACP, SfaO was expressed and purified as a N-terminal 6×His-tagged derivative. […] Thirdly, to detect the substrate flexibility of SfaR, we synthesized the 5-carbon substrate pentenyl-S-CoA.

MLR = details: compared with SFA; cited from earlier work

Compound: CC(=O)NCCSC(=O)C(N)Cc1ccccc1 (centres unmarked)
- activity of SfaA on the substrate (SfaA): did show activity

- Km (SfaR; substrate crotonyl-S-CoA, SfaR, NADPH): 840 µM
Compound: C/C=C/C(=O)SCCNC(=O)CCNC(=O)[C@H](O)C(C)(C)COP(=O)(O)OP(=O)(O)OC[C@H]1O[C@@H](n2cnc3c(N)ncnc32)[C@H](O)[C@@H]1OP(=O)(O)O [crotonyl-S-CoA]

Compound: CC/C=C/C(=O)SCCNC(=O)CCNC(=O)[C@H](O)C(C)(C)COP(=O)(O)OP(=O)(O)OC[C@H]1O[C@@H](n2cnc3c(N)ncnc32)[C@H](O)[C@@H]1OP(=O)(O)O [pentenyl-S-CoA]
- Km (SfaR; pentenyl-S-CoA in reductively producing pentanoyl-S-CoA): 1400 µM

Compound: N[C@@H](Cc1ccccc1)C(=O)O [phenylalanine]
- activity of SfaA on the substrate (SfaA): no activity

Compound: sanglifehrin B
- immunosuppressive activity in MLR assays (MLR): higher immunosuppressive activity than SFA

— patent US8962329B2, “Gene cluster” (Shanghai Institute of Organic Chemistry, Chinese Academy of …, priority 2008, dated 2015)
